Patent US9073855B2, “BCL-2 selective apoptosis-inducing agents for the treatment of cancer and immune diseases” (AbbVie Inc., priority 2008, dated 2015)

What was measured:
GST-Bcl-2 = GST-Bcl-2 (Homo sapiens, UniProt P10415); experiment: TR-FRET binding assay, GST-Bcl-2 with F-Bak peptide probe; conditions: for Ki: TR-FRET Binding Affinity
Method in brief: (§1)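 Competitive TR-FRET: GST-fusion protein, fluorescent Bak peptide probe and Tb-labelled anti-GST antibody incubated with compound dilution series (starting 50 μM as 2× stock, 10% DMSO) for 3 h at RT. Excitation 340/35 nm; Ki derived via Wang's exact competitive-binding equation.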

GST-Bcl-XL = GST-Bcl-XL (Homo sapiens, UniProt Q07817); experiment: TR-FRET binding assay, GST-Bcl-XL with F-Bak peptide probe; conditions: TR-FRET Binding Affinity
Sequence of GST-Bcl-XL (Q07817 whole entry): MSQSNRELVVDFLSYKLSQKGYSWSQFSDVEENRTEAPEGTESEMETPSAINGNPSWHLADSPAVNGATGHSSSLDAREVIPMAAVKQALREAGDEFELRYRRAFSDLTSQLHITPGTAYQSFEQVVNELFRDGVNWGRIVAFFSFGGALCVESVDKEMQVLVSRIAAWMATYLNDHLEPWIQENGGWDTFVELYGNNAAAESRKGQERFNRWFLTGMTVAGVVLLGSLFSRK
Method in brief: as §1

[1] = GST-Bcl-XL, F-Bak peptide probe
[2] = ratio of TR-FRET Ki values, Bcl-XL over Bcl-2
[3] = TR-FRET, Bcl-XL Ki divided by Bcl-2 Ki

Sequence of GST-Bcl-2 (P10415 whole entry, the tested form may be a part): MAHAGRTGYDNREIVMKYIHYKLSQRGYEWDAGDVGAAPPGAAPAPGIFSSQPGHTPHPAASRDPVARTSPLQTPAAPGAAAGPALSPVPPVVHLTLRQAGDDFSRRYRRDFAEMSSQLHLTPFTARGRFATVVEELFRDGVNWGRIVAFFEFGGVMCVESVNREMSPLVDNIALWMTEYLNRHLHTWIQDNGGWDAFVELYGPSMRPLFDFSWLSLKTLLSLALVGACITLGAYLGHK

## O=C(NS(=O)(=O)c1ccc(NCCCN2CCOCC2)c([N+](=O)[O-])c1)c1ccc(N2CCN(Cc3ccccc3-c3ccc(Cl)cc3)CC2)cc1Oc1cccc2[nH]ccc12 [Example 58, 4-{4-[(4′-chloro-1,1′-biphenyl-2-yl)methyl]piperazin-1-yl}-2-(1H-indol-4-yloxy)-N-({4-[(3-morpholin-4-ylpropyl)amino]-3-nitrophenyl}sulfonyl)benzamide]
GST-Bcl-2; GST-Bcl-2, F-Bak peptide probe
  Ki: 1.08 nM
GST-Bcl-XL; [1]
  Ki: 288 nM

## CN(C)CC(=O)N1CCO[C@@H](COc2ncc(S(=O)(=O)NC(=O)c3ccc(N4CCN(CC5=C(c6ccc(Cl)cc6)CC(C)(C)CC5)CC4)cc3Oc3cccc4[nH]cnc34)cc2Cl)C1 [Example 424, 2-(1H-benzimidazol-4-yloxy)-N-[(5-chloro-6-{[(2R)-4-(N,N-dimethylglycyl)morpholin-2-yl]methoxy}pyridin-3-yl)sulfonyl]-4-(4-{[2-(4-chlorophenyl)-4,4-dimethylcyclohex-1-en-1-yl]methyl}piperazin-1-yl)benzamide]
GST-Bcl-2; GST-Bcl-2, F-Bak peptide probe
  Ki: < 0.01 nM
GST-Bcl-2; [2]
  Binding selectivity ratio (Bcl-XL Ki/Bcl-2 Ki): 782.5
GST-Bcl-XL; [1]
  Ki: 7.82 nM

## CC1(C)CCC(CN2CCN(c3ccc(C(=O)NS(=O)(=O)c4ccc(NC5(CO)CCOCC5)c([N+](=O)[O-])c4)c(Oc4cccc5[nH]ccc45)c3)CC2)=C(c2ccc(Cl)cc2)C1 [Example 241, 4-(4-{[2-(4-chlorophenyl)-4,4-dimethylcyclohex-1-en-1-yl]methyl}piperazin-1-yl)-N-[(4-{[4-(hydroxymethyl)tetrahydro-2H-pyran-4-yl]amino}-3-nitrophenyl)sulfonyl]-2-(1H-indol-4-yloxy)benzamide]
GST-Bcl-2; GST-Bcl-2, F-Bak peptide probe
  Ki: 6.09 nM
GST-Bcl-XL; [1]
  Ki: > 660 nM

## CC1(C)CCC(CN2CCN(c3ccc(C(=O)NS(=O)(=O)c4cnc(OCC5(F)CCN(C(CF)CF)CC5)c(C(F)(F)F)c4)c(Oc4cccc5[nH]ncc45)c3)CC2)=C(c2ccc(Cl)cc2)C1 [Example 459, 4-(4-{[2-(4-chlorophenyl)-4,4-dimethylcyclohex-1-en-1-yl]methyl}piperazin-1-yl)-N-{[6-({4-fluoro-1-[2-fluoro-1-(fluoromethyl)ethyl]piperidin-4-yl}methoxy)-5-(trifluoromethyl)pyridin-3-yl]sulfonyl}-2-(1H-indazol-4-yloxy)benzamide]
GST-Bcl-2
  Ki: < 0.01 nM
GST-Bcl-2; [3]
  Binding selectivity ratio (Bcl-XL Ki/Bcl-2 Ki): 541.6
GST-Bcl-XL
  Ki: 5.42 nM

## CC1(C)CCC(CN2CCN(c3ccc(C(=O)NS(=O)(=O)c4ccc(NCC5COCCO5)c([N+](=O)[O-])c4)c(Oc4cccc5[nH]cnc45)c3)CC2)=C(c2ccc(Cl)cc2)C1 (stereo not shown) [Example 450, 2-(1H-benzimidazol-4-yloxy)-4-(4-{[2-(4-chlorophenyl)-4,4-dimethylcyclohex-1-en-1-yl]methyl}piperazin-1-yl)-N-({4-[(1,4-dioxan-2-ylmethyl)amino]-3-nitrophenyl}sulfonyl)benzamide]
GST-Bcl-2
  Ki: 0.299 nM
GST-Bcl-2; [3]
  Binding selectivity ratio (Bcl-XL Ki/Bcl-2 Ki): 107.3
GST-Bcl-XL
  Ki: 32.1 nM

## CC1(C)CCC(CN2CCN(c3ccc(C(=O)NS(=O)(=O)c4cnc(OCC5CCc6nccn6C5)c(Cl)c4)c(Oc4cccc5[nH]ncc45)c3)CC2)=C(c2ccc(Cl)cc2)C1 (stereo not shown) [Example 536, 4-(4-{[2-(4-chlorophenyl)-4,4-dimethylcyclohex-1-en-1-yl]methyl}piperazin-1-yl)-N-{[5-chloro-6-(5,6,7,8-tetrahydroimidazo[1,2-a]pyridin-6-ylmethoxy)pyridin-3-yl]sulfonyl}-2-(1H-indazol-4-yloxy)benzamide]
GST-Bcl-2
  Ki: 0.025 nM
GST-Bcl-2; [3]
  Binding selectivity ratio (Bcl-XL Ki/Bcl-2 Ki): 886.1
GST-Bcl-XL
  Ki: 22.2 nM

## CN(C)CC(=O)N1CCO[C@@H](CNc2ccc(S(=O)(=O)NC(=O)c3ccc(N4CCN(CC5=C(c6ccc(Cl)cc6)CC(C)(C)CC5)CC4)cc3Oc3cccc4[nH]cnc34)cc2[N+](=O)[O-])C1 [Example 438, 2-(1H-benzimidazol-4-yloxy)-4-(4-{[2-(4-chlorophenyl)-4,4-dimethylcyclohex-1-en-1-yl]methyl}piperazin-1-yl)-N-{[4-({[(2S)-4-(N,N-dimethylglycyl)morpholin-2-yl]methyl}amino)-3-nitrophenyl]sulfonyl}benzamide]
GST-Bcl-2
  Ki: < 0.01 nM
GST-Bcl-XL
  Ki: 0.345 nM

## CC1(C)CCC(CN2CCN(c3ccc(C(=O)NS(=O)(=O)c4ccc(OCC5COCCO5)c([N+](=O)[O-])c4)c(Oc4cccc5[nH]ncc45)c3)CC2)=C(c2ccc(Cl)cc2)C1 (stereo not shown) [Example 447, 4-(4-{[2-(4-chlorophenyl)-4,4-dimethylcyclohex-1-en-1-yl]methyl}piperazin-1-yl)-N-{[4-(1,4-dioxan-2-ylmethoxy)-3-nitrophenyl]sulfonyl}-2-(1H-indazol-4-yloxy)benzamide]
GST-Bcl-2
  Ki: 0.028 nM
GST-Bcl-XL
  Ki: 65.8 nM

## CC1(C)CCC(CN2CCN(c3ccc(C(=O)NS(=O)(=O)c4cnc(OCC5(F)CCOCC5)c(Cl)c4)c(Oc4cccc5[nH]cnc45)c3)CC2)=C(c2ccc(Cl)cc2)C1 [Example 443, 2-(1H-benzimidazol-4-yloxy)-N-({5-chloro-6-[(4-fluorotetrahydro-2H-pyran-4-yl)methoxy]pyridin-3-yl}sulfonyl)-4-(4-{[2-(4-chlorophenyl)-4,4-dimethylcyclohex-1-en-1-yl]methyl}piperazin-1-yl)benzamide]
GST-Bcl-2
  Ki: < 0.01 nM
GST-Bcl-XL
  Ki: 19.4 nM

## CC1(C)CCC(CN2CCN(c3ccc(C(=O)NS(=O)(=O)c4cnc(OCC5CCC(C)(O)CC5)c(Cl)c4)c(Oc4cccc5[nH]ncc45)c3)CC2)=C(c2ccc(Cl)cc2)C1 (stereo not drawn) [Example 494, N-({5-chloro-6-[(trans-4-hydroxy-4-methylcyclohexyl)methoxy]pyridin-3-yl}sulfonyl)-4-(4-{[2-(4-chlorophenyl)-4,4-dimethylcyclohex-1-en-1-yl]methyl}piperazin-1-yl)-2-(1H-indazol-4-yloxy)benzamide]
GST-Bcl-2
  Ki: < 0.01 nM
GST-Bcl-2; [3]
  Binding selectivity ratio (Bcl-XL Ki/Bcl-2 Ki): >1556.6
GST-Bcl-XL
  Ki: 15.6 nM

## CCN(C)C(=O)N1CCOC(CNc2ccc(S(=O)(=O)NC(=O)c3ccc(N4CCN(CC5=C(c6ccc(Cl)cc6)CC(C)(C)CC5)CC4)cc3Oc3cccc4[nH]ncc34)cc2[N+](=O)[O-])C1 (stereo not shown) [Example 506, 2-{[(4-{[4-(4-{[2-(4-chlorophenyl)-4,4-dimethylcyclohex-1-en-1-yl]methyl}piperazin-1-yl)-2-(1H-indazol-4-yloxy)benzoyl]sulfamoyl}-2-nitrophenyl)amino]methyl}-N-ethyl-N-methylmorpholine-4-carboxamide]
GST-Bcl-2
  Ki: < 0.01 nM
GST-Bcl-2; [3]
  Binding selectivity ratio (Bcl-XL Ki/Bcl-2 Ki): >445.7
GST-Bcl-XL
  Ki: 4.46 nM

## CC1(C)CCC(CN2CCN(c3ccc(C(=O)NS(=O)(=O)c4cnc(OCCN5CCOCC5)c(C#N)c4)c(Oc4cccc5[nH]ccc45)c3)CC2)=C(c2ccc(Cl)cc2)C1 [Example 392, 4-(4-{[2-(4-chlorophenyl)-4,4-dimethylcyclohex-1-en-1-yl]methyl}piperazin-1-yl)-N-{[5-cyano-6-(2-morpholin-4-ylethoxy)pyridin-3-yl]sulfonyl}-2-(1H-indol-4-yloxy)benzamide]
GST-Bcl-2; GST-Bcl-2, F-Bak peptide probe
  Ki: 0.38 nM
GST-Bcl-2; [2]
  Binding selectivity ratio (Bcl-XL Ki/Bcl-2 Ki): 320.2
GST-Bcl-XL; [1]
  Ki: 122 nM

## O=C(NS(=O)(=O)c1ccc(NC2CCN(S(=O)(=O)c3cccc4cccnc34)CC2)c([N+](=O)[O-])c1)c1ccc(N2CCN(Cc3ccccc3-c3ccc(Cl)cc3)CC2)cc1Oc1ccccc1 [Example 158, 4-{4-[(4′-chloro-1,1′-biphenyl-2-yl)methyl]piperazin-1-yl}-N-[(3-nitro-4-{[1-(quinolin-8-ylsulfonyl)piperidin-4-yl]amino}phenyl)sulfonyl]-2-phenoxybenzamide]
GST-Bcl-2; GST-Bcl-2, F-Bak peptide probe
  Ki: 64.8 nM
GST-Bcl-XL; [1]
  Ki: > 660 nM

## CC1(C)CCC(CN2CCN(c3ccc(C(=O)NS(=O)(=O)c4ccc(NCC5CCOCC5)c([N+](=O)[O-])c4)c(Oc4ccccc4)c3)CC2)=C(c2ccc(Cl)cc2)C1 [Example 460, 4-(4-{[2-(4-chlorophenyl)-4,4-dimethylcyclohex-1-en-1-yl]methyl}piperazin-1-yl)-N-({3-nitro-4-[(tetrahydro-2H-pyran-4-ylmethyl)amino]phenyl}sulfonyl)-2-phenoxybenzamide]
GST-Bcl-2
  Ki: 0.049 nM
GST-Bcl-XL
  Ki: 29 nM

## CN1CCN(CCNc2ccc(S(=O)(=O)NC(=O)c3ccc(N4CCN(CC5=C(c6ccc(Cl)cc6)CC(C)(C)CC5)CC4)cc3Oc3cccc4[nH]ccc34)cc2[N+](=O)[O-])CC1 [Example 101, 4-(4-{[2-(4-chlorophenyl)-4,4-dimethylcyclohex-1-en-1-yl]methyl}piperazin-1-yl)-2-(1H-indol-4-yloxy)-N-[(4-{[2-(4-methylpiperazin-1-yl)ethyl]amino}-3-nitrophenyl)sulfonyl]benzamide]
GST-Bcl-2; GST-Bcl-2, F-Bak peptide probe
  Ki: 0.092 nM
GST-Bcl-XL; [1]
  Ki: 11.2 nM

## CC1(C)CCC(CN2CCN(c3ccc(C(=O)NS(=O)(=O)c4cnc(OC[C@@H]5CCN(C(CF)CF)C5)c(Cl)c4)c(Oc4cccc5[nH]ncc45)c3)CC2)=C(c2ccc(Cl)cc2)C1 [Example 444, N-{[5-chloro-6-({(3R)-1-[2-fluoro-1-(fluoromethyl)ethyl]pyrrolidin-3-yl}methoxy)pyridin-3-yl]sulfonyl}-4-(4-{[2-(4-chlorophenyl)-4,4-dimethylcyclohex-1-en-1-yl]methyl}piperazin-1-yl)-2-(1H-indazol-4-yloxy)benzamide]
GST-Bcl-2
  Ki: 0.112 nM
GST-Bcl-2; [3]
  Binding selectivity ratio (Bcl-XL Ki/Bcl-2 Ki): 727.6
GST-Bcl-XL
  Ki: 81.5 nM

## CC[C@]1(O)CC[C@H](COc2ncc(S(=O)(=O)NC(=O)c3ccc(N4CCN(CC5=C(c6ccc(Cl)cc6)CC(C)(C)CC5)CC4)cc3Oc3cccc4[nH]ncc34)cc2Cl)CC1 [Example 508, N-({5-chloro-6-[(trans-4-ethyl-4-hydroxycyclohexyl)methoxy]pyridin-3-yl}sulfonyl)-4-(4-{[2-(4-chlorophenyl)-4,4-dimethylcyclohex-1-en-1-yl]methyl}piperazin-1-yl)-2-(1H-indazol-4-yloxy)benzamide]
GST-Bcl-2
  Ki: < 0.01 nM
GST-Bcl-2; [3]
  Binding selectivity ratio (Bcl-XL Ki/Bcl-2 Ki): >4315.2
GST-Bcl-XL
  Ki: 43.2 nM
